In patent US20160304959A1, “COMPOSITIONS AND METHODS FOR TREATING DIABETIC NEPHROPATHY” (Rush University Medical Center, priority 2013, published 2016):

How the values were obtained:
ErbB4 = ErbB4 (Homo sapiens, UniProt Q15303); details: cited from earlier work; for Affinity and selectivity for ErbB4 versus EGFR: pan-ErbB inhibitors; for Inhibition of ErbB4 (affinity): ref. 77 for JNJ
podocytes = assay: Podocytes treated with TGFβ and co-treated with ErbB4 inhibitor (qRT-PCR, immunofluorescence); assay type: cell-based, mouse; details: podocytes treated with TGFb plus inhibitor, 2 h
Experimental: FIG. 5A is a bar graph showing qRT-PCR based analysis of levels of various RNAs in podocytes cultured in normal glucose (5 mM) v/s treatment with HG (30 mM) for 2 h or 24 h (Notch-1). FIG. 5B is a bar graph showing qRT-PCR based analysis of levels of various RNAs in podocytes cultured in normal media or treated with TGFb in the absence or presence of ErbB4 inhibitor (JNJ) for 2 h. FIG. 5C provides representative immunofluorescence images showing podocytes cultured in normal media or treated with TGFb in the absence or presence of ErbB4 inhibitor (JNJ) for 2 h and stained for paxillin, synpo or ErbB4.

[1] = tested on: DN prone miR-146a KO animals; assay: STZ-induced diabetic nephropathy in miR-146a KO animals, albuminuria; assay type: in vivo, mouse; details: miR-146a KO + STZ mice, 70 mg/kg I.P. daily from 4 weeks post-STZ
Experimental: We investigated the role of miR-146 in diabetic nephropathy (DN) using the miR-146a KO animals and a DN mouse model. Streptozotocin (STZ) treatment (125 mg/kg, two doses 3 days apart) induced similar levels of hyperglycemia in both WT and miR146a KO animals (FIG. 7).
To determine if inhibiting ErbB4 using ErbB4 erlotinib would be beneficial and protect animals from DN, we administered Erlotinib (70 mg/kg in saline/Kolliphor, Tween, I.P., daily) in DN prone miR-146a KO animals starting at 4 weeks post-STZ.

[2] = tested on: WT and miR-146a KO DN mice; assay: TEM of kidney sections for podocyte foot process effacement after STZ; assay type: in vivo, mouse
Experimental: We also analyzed the kidney sections using transmission electron microscopy (TEM) to determine if erlotinib treatment provided protection of podocytes from foot process effacement. TEM was performed according to the standard protocols (Sever, S. et al. J Clin. Invest. 117, 2095-2104 (2007)).

Sequence of ErbB4 (Q15303 26-1308): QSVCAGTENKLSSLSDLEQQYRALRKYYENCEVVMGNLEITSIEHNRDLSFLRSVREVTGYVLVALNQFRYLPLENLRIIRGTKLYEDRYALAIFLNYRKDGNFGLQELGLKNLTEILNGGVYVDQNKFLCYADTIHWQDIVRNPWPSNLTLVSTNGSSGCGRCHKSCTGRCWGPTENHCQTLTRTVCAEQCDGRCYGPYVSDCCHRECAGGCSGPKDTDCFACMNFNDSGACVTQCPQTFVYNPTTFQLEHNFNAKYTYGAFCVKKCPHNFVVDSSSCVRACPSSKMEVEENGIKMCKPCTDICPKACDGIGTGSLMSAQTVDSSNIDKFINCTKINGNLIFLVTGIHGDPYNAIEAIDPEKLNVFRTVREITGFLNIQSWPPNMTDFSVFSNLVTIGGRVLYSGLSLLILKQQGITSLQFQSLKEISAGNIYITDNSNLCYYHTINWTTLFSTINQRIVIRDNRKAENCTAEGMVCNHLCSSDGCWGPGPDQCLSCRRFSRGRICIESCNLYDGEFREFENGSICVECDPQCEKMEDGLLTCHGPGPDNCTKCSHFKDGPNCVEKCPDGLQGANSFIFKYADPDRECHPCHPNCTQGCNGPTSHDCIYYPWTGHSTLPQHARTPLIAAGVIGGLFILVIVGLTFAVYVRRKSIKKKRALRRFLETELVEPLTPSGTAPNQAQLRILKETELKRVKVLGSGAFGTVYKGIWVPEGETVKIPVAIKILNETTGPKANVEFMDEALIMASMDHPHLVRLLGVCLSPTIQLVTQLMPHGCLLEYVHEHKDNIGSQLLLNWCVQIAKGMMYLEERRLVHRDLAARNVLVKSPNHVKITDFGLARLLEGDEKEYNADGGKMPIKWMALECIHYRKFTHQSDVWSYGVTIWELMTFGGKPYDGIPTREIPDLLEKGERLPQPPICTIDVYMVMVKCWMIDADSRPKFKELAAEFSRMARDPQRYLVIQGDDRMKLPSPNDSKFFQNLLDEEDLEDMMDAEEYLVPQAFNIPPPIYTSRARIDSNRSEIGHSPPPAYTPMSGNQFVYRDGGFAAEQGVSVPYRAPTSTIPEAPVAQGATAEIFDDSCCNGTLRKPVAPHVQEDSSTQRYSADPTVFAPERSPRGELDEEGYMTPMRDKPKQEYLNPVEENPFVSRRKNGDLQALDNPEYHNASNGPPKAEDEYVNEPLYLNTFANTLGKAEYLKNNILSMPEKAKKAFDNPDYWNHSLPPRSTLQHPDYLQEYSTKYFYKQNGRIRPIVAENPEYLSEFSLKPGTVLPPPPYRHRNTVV

Row | Compound | Affinity and selectivity for ErbB4 versus EGFR (ErbB4) | Reversal of deleterious expression changes induced by TGFβ (mRNA and protein level) (podocytes) | Inhibition of ErbB4 (affinity) (ErbB4) | Proteinuria (albuminuria) [1] | Podocyte foot process effacement (TEM) ([2]; WT mice after STZ) | Podocyte foot process effacement (TEM) ([2]; miR-146a KO DN mice)
1 | CNc1cc2c(Nc3cccc(Br)c3)ncnc2cn1 [PD158780] | high affinity and selectivity for ErbB4 | – | – | – | – | –
2 | Cl.Nc1ncnc(Nc2ccc(OCc3ccccc3)c(Cl)c2)c1/C=N/OCCN1CCOCC1 [JNJ28871063] | high affinity and selectivity for ErbB4 | reversed the deleterious expression changes induced by TGFβ | nanomolar affinity | – | – | –
3 | C#Cc1cccc(Nc2ncnc3cc(OCCOC)c(OCCOC)cc23)c1 [Erlotinib] | high affinity and selectivity for ErbB4 | – | – | significantly reduced proteinuria (albuminuria) | significantly reduced podocyte foot process effacement | significantly reduced podocyte foot process effacement
4 | CS(=O)(=O)CCNCc1ccc(-c2ccc3ncnc(Nc4ccc(OCc5cccc(F)c5)c(Cl)c4)c3c2)o1 [Lapatinib] | much more effective against EGFR v/s ErbB4 | less effective | only weakly effective on ErbB4 | – | – | –
